Laboratory results: a melting point compilation (Tetko et al.)

melting point | SMILES
199 to 201 °C | Nc1cc(Cl)c(Cl)c(C(=O)O)c1
145 to 147 °C | CC(O)C(NC(=O)C1CCCC1)C(=O)O (centres undefined)
295 to 297 °C | O=C(O)c1ccc2nc(S)oc2c1
119 to 121 °C | Nc1ccccc1N1CCN(CCc2ccncc2)CC1
123 to 125 °C | O=C(O)CCC(=O)c1ccc2c(c1)CCC2
199 to 201 °C | O=C(O)c1n[nH]ccc1=O
127 to 129 °C | Nc1cc(C2CCCCC2)no1
66 to 68 °C | O=C(O)CSCc1ccc(Cl)s1
176 to 178 °C | O=C(O)CNC(=O)c1ccsc1
193 to 195 °C | CCCn1c(N)c(NCCOC)c(=O)[nH]c1=O
112 to 114 °C | CC(C)(C)OC(=O)N1CCCNC(=O)C1
239 to 241 °C | O=C(O)c1ccc(S(=O)(=O)CC(F)(F)F)cc1
154 to 156 °C | O=C(O)CNC(=O)c1ccc(C(F)(F)F)cc1
156 to 158 °C | CC(C)S(=O)(=O)NCC1CCCNC1 (centres undefined)
158 to 160 °C | CC(C)(C)OC(=O)NCCc1nnc2n1CCCC2
209 to 211 °C | Cc1cc(C(=O)O)cc(S(=O)(=O)Cl)c1Cl
227 to 229 °C | O=C(O)CCc1cc2ccccc2[nH]c1=O
224 to 226 °C | O=C(O)COCCN1CCN(C(c2ccccc2)c2ccc(Cl)cc2)CC1 (centres undefined)
85 to 87 °C | CCOC(=O)C(O)c1ncc(Cl)n1C (centres undefined)
72 to 74 °C | COC(=O)c1c(C2CC2)csc1N
53 to 55 °C | Cc1cccc(C)c1NC(=O)CN1CCNCC1
284 to 286 °C | O=C(O)c1ccc(NC(=O)C23CC4CC(CC(C4)C2)C3)cc1
35 to 37 °C | O=C1CC2(CCCC2)Oc2ccccc21
61 to 63 °C | ON=C1CCN(Cc2ccccn2)CC1
169 to 171 °C | CN(C)C(=O)C1CCC(C(=O)O)CC1 (centres undefined)
129 to 131 °C | CC(C)c1ccc(N2CCC(C(=O)O)C2=O)cc1 (centres undefined)
79 to 81 °C | CC(C)(C)NC(=O)C1CCCCN1 (centres undefined)

melting point | SMILES
160 to 162 °C | CN1CCN(c2ccc(C(=O)O)cc2[N+](=O)[O-])CC1
134 to 136 °C | O=C(O)C1(c2ccc(F)cc2F)CCOCC1
131 to 133 °C | O=C(O)CCNc1ncc(C(F)(F)F)cc1Cl
10 to 12 °C | CS(=O)(=O)N1CCN(CCN)CC1
153 to 155 °C | O=C(O)CCc1nc(-c2ccsc2)no1
64 to 66 °C | O=C(O)CCc1ccc2c(c1)OCCO2
261 to 263 °C | CC(C)(C)OC(=O)Nc1cnc(C(=O)O)cn1
130 to 132 °C | O=C(NC1CC1)c1ccc(Cl)c([N+](=O)[O-])c1
201 to 203 °C | O=C(O)C1CC(O)CN1C(=O)Cc1ccccc1F (centres undefined)
119 to 121 °C | O=C(O)c1cccn1CCc1ccccc1
248 to 250 °C | O=C(O)CCNC(=O)Nc1ccc(Br)cc1
109 to 111 °C | O=C(NCC1CCCCN1)c1ccccc1 (centres undefined)
168 to 170 °C | Cc1ncc(C(=O)O)c(C(C)C)n1
149 to 151 °C | Cc1cc(F)ccc1-n1cc(O)c(C(=O)O)n1
157 to 159 °C | Cc1ccc(-n2c(C)ccc2C)c(C(=O)O)c1
184 to 186 °C | O=C(O)c1cccc([N+](=O)[O-])c1Br
106 to 108 °C | CC(=O)Nc1ccc(CCO)cc1
152 to 155 °C | O=C(O)CCCNS(=O)(=O)c1cccc(C(F)(F)F)c1
226 to 228 °C | O=C(O)c1csc(S(=O)(=O)N2CCOCC2)c1
228 to 230 °C | CCn1nnc2cc(C(=O)O)ccc21
79 to 81 °C | O=C(O)c1cccnc1OCC(F)F
157 to 159 °C | O=C(CCl)Nc1cccc(S(=O)(=O)N2CCOCC2)c1
89 to 91 °C | Cc1cc(CCC(=O)O)ccc1Br
124 to 126 °C | CCOC(=O)c1ccc(S(=O)(=O)N2CCCC2C(=O)O)o1 (centres undefined)
113 to 115 °C | O=C(O)C1CCN(c2cccc(Cl)c2)C1=O (centres undefined)
99 to 101 °C | O=C(O)C1Cc2ccccc2CN1S(=O)(=O)c1ccc(F)cc1 (centres undefined)
159 to 161 °C | O=C(O)C1CC(=O)N(CCN2CCOCC2)C1 (centres undefined)

Continued, compound first:

SMILES | melting point
CC(=O)c1oc2ccccc2c1NC(=O)C(C)Cl (centres undefined) | 105 to 107 °C
Cn1ccnc1CC#N | 39 to 41 °C
Cc1[nH]cnc1CO | 233 to 235 °C
COC(=O)COc1ccc([N+](=O)[O-])c2ccccc12 | 141 to 143 °C
Cc1ccc(-n2cc(SC(=O)N(C)C)cn2)cc1 | 95 to 97 °C
CC(=O)c1ccc(-c2ccc(C(F)(F)F)cc2)s1 | 127 to 129 °C
Nc1cccnc1Nc1ccc2c(c1)C(=O)NC2=O | 269 to 271 °C
CNCc1ccc(OC)c(O)c1 | 141 to 143 °C
CN(C)c1ccc(C(N)=NO)cc1 | 169 to 171 °C
c1ccc(NC2CCNC2)cc1 (centres undefined) | 77 to 79 °C
COc1ccnc(NCC(=O)O)n1 | 190 to 192 °C
COc1cc(CCl)ccc1OCc1cccc(C#N)c1 | 95 to 97 °C
COCCOc1ccc(CC#N)cc1 | 49 to 51 °C
CCOC(=O)c1cccnc1NC | 46 to 48 °C
COC(=O)Cc1csc(N)n1 | 123 to 125 °C
NC(=S)c1ccccc1O | 118 to 120 °C
Cc1ccc(C(N)Cn2ccnc2)c(C)c1 (centres undefined) | 79 to 81 °C
Nc1cc(=O)[nH][nH]1 | 204 to 206 °C
Cc1ccc(C(C)C(O)C(=O)O)cc1 (centres undefined) | 111 to 113 °C
CS(=O)(=O)c1cccc(C(N)c2ccc(F)cc2)c1 (centres undefined) | 88 to 90 °C
NCc1cccc(NC(=O)Cn2cccn2)c1 | 113 to 115 °C
Brc1cnc2nc3ccccc3n2c1 | 269 to 271 °C
O=S(=O)(c1ccc(S)cc1)C(F)(F)F | 116 to 118 °C

SMILES | melting point
CC(C)(C)c1ccc(C(=O)N=C=S)cc1 | 33 to 35 °C
Cc1ccc2c(n1)OCCN2 | 109 to 111 °C
NNC(=O)c1ccc(F)cc1Cl | 161 to 163 °C
N#Cc1cc(N)ncc1Br | 184 to 186 °C
NC(=S)c1cc(Br)cs1 | 199 to 201 °C
COc1ccccc1NS(=O)(=O)c1ccc(C(=O)O)cc1 | 201 to 203 °C
CCOc1nnc(Cl)c2ccccc12 | 80 to 82 °C
Cc1sc(N)nc1-c1ccc(OC(F)F)cc1 | 105 to 107 °C
COC(=O)c1ccc(OCCBr)c(Cl)c1 | 72 to 74 °C
Clc1c(Br)ccc2ccccc12 | 51 to 53 °C
Cc1nn(-c2ccccc2)c(C)c1NC(=O)CCl | 149 to 151 °C
O=Cc1cn(-c2ccc(Cl)c(Cl)c2)nn1 | 175 to 177 °C
Cc1nc(-c2cccc(Br)c2)ccc1C(=O)O | 181 to 183 °C
Sc1ccc(Cl)nn1 | 148 to 150 °C
Nc1ncn(Cc2ccccc2)n1 | 130 to 132 °C
FC(F)(F)c1nc2c([nH]1)CCCC2 | 229 to 231 °C
CCC(=O)c1ccc(Cl)s1 | 47 to 49 °C
FC(F)(F)c1n[nH]c2ccncc12 | 227 to 229 °C
FC(F)Oc1ccccc1-c1noc(CCl)n1 | < 17 °C
COC(=O)c1cc(Cl)c2cc(Cl)ccc2n1 | 157 to 159 °C
CC(O)c1cc[nH]n1 (centres undefined) | 58 to 60 °C
CNC(C)C(=O)O (centres undefined) | 268 to 270 °C
CCOC(=O)CNc1ccccc1-c1ccccc1 | 53 to 55 °C

SMILES | melting point
O=Cc1cc(Cl)cc(Cl)c1OC(F)F | 51 to 53 °C
COC(=O)c1ccc(C(=O)OC)c(S(=O)(=O)Cl)c1 | 63 to 67 °C
O=C(O)c1ccc(Cl)c(S(=O)(=O)Nc2ccc(Cl)cc2)c1 | 214 to 216 °C
CC(C)Nc1ccc(Br)cn1 | 69 to 71 °C
COc1ccc(S(=O)(=O)Nc2ncc(Br)s2)cc1 | 132 to 134 °C
Nc1cc(F)ccc1NC(=O)c1ccccn1 | 101 to 103 °C
O=C(O)c1c[nH]nc1-c1ccccc1 | 286 to 288 °C
COc1nc(Cl)c(C=O)s1 | 43 to 45 °C
COCc1csc(N)n1 | 109 to 111 °C
O=C1C(=O)N(Cc2ccccc2)c2ccccc21 | 92 to 94 °C
COc1cc(C=O)cc(Cl)c1OCC(N)=O | 166 to 170 °C
Cc1cc(OC(C)C(=O)O)ccc1C(C)C (centres undefined) | 92 to 94 °C
O=C1Nc2cc(F)c(Cl)cc2C1=O | 256 to 258 °C
Cc1nc2ccccc2c(C)c1C(=O)O | 186 to 188 °C
Clc1ccc(NCc2cccnc2)c(Cl)c1 | 76 to 78 °C
O=C(Cc1ccccc1Cl)c1ccccc1 | 68 to 70 °C
CCNC(=O)c1cccc(C#N)c1 | 99 to 101 °C
COc1ccc(-n2c(C)cc(C(=O)CCl)c2C)cc1 | 91 to 95 °C
Sc1nnc(-c2ccncc2)n1Cc1ccccc1 | 195 to 197 °C
O=C1CSC(C(F)(F)F)O1 (centres undefined) | 65 to 67 °C
Cn1cnc(-c2ccccc2)c1N | 159 to 161 °C
O=C1CCN(C(=O)C2CC2)CC1 | 72 to 74 °C
COc1cc(C(=O)Oc2ccc(C=O)cc2)cc(OC)c1OC | 113 to 115 °C

SMILES | melting point
COC(=O)c1cc([N+](=O)[O-])c(C)cc1C | 57 to 59 °C
O=c1[nH]cnc2c(-c3ccccc3)nsc12 | 256 to 258 °C
CCOc1ccc(C(C)=O)cc1CCl | 80 to 82 °C
Nc1cc2c(=O)[nH]cnc2cc1F | 319 to 321 °C
CNc1ncc2c(n1)-c1ccccc1SC2 | 123 to 125 °C
Cc1ccc(Cn2c(N)cc(=O)[nH]c2=O)cc1 | 279 to 281 °C
O=Cc1ccc(Cl)nc1 | 75 to 77 °C
Nc1c([N+](=O)[O-])cc(F)c(F)c1Br | 104 to 106 °C
O=C(O)C(=O)NNc1ccc(Cl)cc1Cl | 169 to 171 °C
Sc1ncc(-c2ccc(Cl)cc2)n1-c1ccccc1 | 283 to 285 °C
Cc1ccc2ccccc2c1S(=O)(=O)Cl | 76 to 78 °C
Cc1ccc(Cn2nc(C)c(C=O)c2C)cc1 | 65 to 67 °C
Cc1ccc(C)c(C(C)Nc2ccc(C(=O)O)cc2C)c1 (centres undefined) | 211 to 213 °C
N#Cc1ccc(N=C=O)cc1 | 101 to 104 °C
CN1CCC(n2nccc2N)CC1 | 98 to 100 °C
CCOC(=O)c1c(NC(N)=S)sc(C)c1C | 207 to 209 °C
Nc1nc(-c2ccc(OC(F)F)cc2OC(F)F)cs1 | 86 to 88 °C
O=C(O)c1cn(Cc2cccc(F)c2)nn1 | 189 to 191 °C
O=S(=O)(Cl)c1scc(Br)c1Br | 111 to 113 °C
CC(C(=O)O)c1cccc(F)c1 (centres undefined) | 59 to 61 °C
CCOC(=O)Cc1nnc(N)s1 | 156 to 158 °C
